According to US9708336B2, “Metallo-beta-lactamase inhibitors” (priority 2014, dated 2017):
Read-outs that look alike come from different tables or passages of the source.

How the values were obtained:
[1] = target: NDM-1 (Klebsiella pneumoniae, UniProt C7C422); assay: biochemical; type: biochemical; settings: read-out: NDM-1 IC50
[2] = target: IMP-1 (Serratia marcescens, UniProt P52699); assay: biochemical; type: biochemical; settings: read-out: IMP-1 IC50
[3] = target: VIM-1 (Pseudomonas aeruginosa (strain ATCC 15692 / DSM 22644 / CIP 104116 / JCM 14847 / LMG 12228 / 1C / PRS 101 / PAO1), UniProt A0A0F7KYQ8); assay: Enzyme activity: determination of IC50, fluorescence assay with CCF2-FA substrate (VIM-1); type: biochemical
[4] = test system: Escherichia coli expressing NDM-1 (CLB30016); assay: Antibiotic potentiation activity: synergistic concentration (MITC95) with imipenem, OD600 growth; type: cell-based; settings: for Escherichia coli expressing NDM-1 (CLB 30016) MITC95: concentration giving 95% inhibition of bacterial growth
Outline: (§1)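 CLB30005 was precultured on Mueller Hinton agar with 8 ug/ml imipenem, the other strains on trypticase soy agar with 5% sheep blood, overnight at 35 °C. Saline suspensions diluted 1:100 in 1.1× CAMHB received compound and 4 μg/ml imipenem, then 22–24 h at 35 °C before absorbance reading.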

[5] = test system: Klebsiella pneumoniae expressing VIM-1 (IHMA599644); assay: as above; type: cell-based; settings: for Klebsiella pneumoniae expressing VIM-1 (IHMA 599644) MITC95: concentration giving 95% inhibition of bacterial growth
Outline: as §1

[6] = test system: Serratia marcescens expressing IMP-1 (CL5741); assay: as above; type: cell-based; settings: for Serratia marcescens expressing IMP-1 (CL5741) MITC95: concentration giving 95% inhibition of bacterial growth
Outline: as §1

[7] = NDM-1 enzyme, CCF2-FA fluorescence assay
[8] = IMP-1 enzyme, CCF2-FA fluorescence assay
[9] = Escherichia coli expressing NDM-1 (CLB30016), 95% growth inhibition
[10] = Klebsiella pneumoniae expressing VIM-1 (IHMA599644), 95% growth inhibition
[11] = Serratia marcescens expressing IMP-1 (CL5741), 95% growth inhibition
[12] = NDM-1 enzyme, CCF2-FA substrate
[13] = IMP-1 enzyme, CCF2-FA substrate
[14] = VIM-1 enzyme, CCF2-FA substrate, read-out: VIM-1 IC50
[15] = (CLB30016, NDM-1), 95% growth inhibition
[16] = Klebsiella pneumoniae IHMA599644 (VIM-1), 95% growth inhibition
[17] = Serratia marcescens CL5741 (IMP-1), 95% growth inhibition
[18] = VIM-1 enzyme, CCF2-FA fluorescence assay, read-out: VIM-1 IC50
[19] = fluorescence assay with CCF2-FA substrate
[20] = fluorescence assay with CCF2-FA substrate, read-out: VIM-1 IC50
[21] = CLB30016 (NDM-1), 95% inhibition of bacterial growth
[22] = IHMA599644 (VIM-1), 95% inhibition of bacterial growth
[23] = CL5741 (IMP-1), 95% inhibition of bacterial growth

NDM-1, sequence (C7C422 whole entry, looked up, species assumed): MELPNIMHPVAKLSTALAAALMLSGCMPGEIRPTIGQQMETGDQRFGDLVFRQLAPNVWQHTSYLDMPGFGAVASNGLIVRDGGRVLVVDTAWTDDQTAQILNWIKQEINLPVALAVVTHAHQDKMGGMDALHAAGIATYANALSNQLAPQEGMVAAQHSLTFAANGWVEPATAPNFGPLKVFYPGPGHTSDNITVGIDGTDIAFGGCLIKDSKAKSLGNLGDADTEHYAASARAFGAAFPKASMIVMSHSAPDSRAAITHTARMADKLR
IMP-1, sequence (P52699 whole entry, looked up): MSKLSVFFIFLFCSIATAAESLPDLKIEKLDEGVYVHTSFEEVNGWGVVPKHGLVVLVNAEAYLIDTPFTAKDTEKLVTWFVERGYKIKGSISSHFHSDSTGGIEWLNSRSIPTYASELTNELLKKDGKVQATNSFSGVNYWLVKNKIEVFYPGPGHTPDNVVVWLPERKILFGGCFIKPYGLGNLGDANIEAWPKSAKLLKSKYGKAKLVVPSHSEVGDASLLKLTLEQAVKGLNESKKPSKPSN

NS(=O)(=O)c1c(Cl)ccc(-c2ccc(C3CCNCC3)cc2)c1-c1nn[nH]n1 [Example 276, 4-chloro-4′-(piperidin-4-yl)-2-(2H-tetrazol-5-yl)-[1,1′-biphenyl]-3-sulfonamide]
IC50 [1, 7]: 5.51 nM
IC50 [2, 8]: 8.75 nM
IC50 ([3]; VIM-1 IC50, VIM-1 enzyme, CCF2-FA fluorescence assay): 3.38 nM
Escherichia coli MITC95 [4, 9]: 0.7813 µM
Klebsiella pneumoniae MITC95 [5, 10]: 1.563 µM
Serratia marcescens MITC95 [6, 11]: 0.3906 µM

CC(C)[C@@H](N)CN1CCC(c2ccc(-c3cccc(S(N)(=O)=O)c3-c3nnn[nH]3)cc2)CC1 [Example 614, 3-[4-[1-[(2R)-2-amino-3-methyl-butyl]-4-piperidyl]phenyl]-2-(1H-tetrazol-5-yl)benzenesulfonamide]
IC50 [1, 12]: 5.89 nM
IC50 [2, 13]: 11.6 nM
IC50 [3, 14]: 505 nM
Escherichia coli MITC95 [4, 15]: 1.172 µM
Klebsiella pneumoniae MITC95 [5, 16]: >200 µM
Serratia marcescens MITC95 [6, 17]: 1.563 µM

NS(=O)(=O)c1c(CC[C@H]2CC[C@H](N)CC2)ccc(-c2ccc(C3CCNCC3)cc2)c1-c1nn[nH]n1 [Example 461, 4-(2-((1r,4s)-4-aminocyclohexyl)ethyl)-4′-(piperidin-4-yl)-2-(2H-tetrazol-5-yl)-[1,1′-biphenyl]-3-sulfonamide]
IC50 [1, 7]: 1.92 nM
IC50 [2, 8]: 4.07 nM
IC50 [3, 18]: 1.67 nM
Escherichia coli MITC95 [4, 9]: 1.563 µM
Klebsiella pneumoniae MITC95 [5, 10]: 4.688 µM
Serratia marcescens MITC95 [6, 11]: 1.563 µM

NS(=O)(=O)c1cccc(-c2cccc3sc(Br)nc23)c1-c1nnn[nH]1 [Example 421, 3-(2-Bromobenzo[d]thiazol-4-yl)-2-(1H-tetrazol-5-yl)benzenesulfonamide]
IC50 [1, 7]: 0.291 nM
IC50 [2, 8]: 18.8 nM
IC50 [3, 18]: 2.3 nM
Escherichia coli MITC95 [4, 9]: 3.125 µM
Klebsiella pneumoniae MITC95 [5, 10]: >200 µM
Serratia marcescens MITC95 [6, 11]: 25 µM

CN(C)CCC1CCN(c2ccnc(S(N)(=O)=O)c2-c2nnn[nH]2)CC1 [Example 219, 4-{4-[2-(dimethylamino)ethyl]piperidin-1-yl}-3-(1H-tetrazol-5-yl)pyridine-2-sulfonamide]
IC50 [1, 19]: 1060 nM
IC50 [2, 19]: 10400 nM
IC50 [3, 20]: 458 nM
Escherichia coli expressing NDM-1 (CLB 30016) MITC95 [4]: 4.688 µM
Klebsiella pneumoniae expressing VIM-1 (IHMA 599644) MITC95 [5]: 12.5 µM
Serratia marcescens expressing IMP-1 (CL5741) MITC95 [6]: 37.5 µM

CC(O)C1CCN(c2ccnc(S(N)(=O)=O)c2-c2nnn[nH]2)CC1 (stereo not drawn) [Example 244, 4-[4-(1-hydroxyethyl)piperidin-1-yl]-3-(1H-tetrazol-5-yl)pyridine-2-sulfonamide]
IC50 [1, 7]: 51.2 nM
IC50 [2, 8]: 682 nM
IC50 [3, 18]: 125 nM
Escherichia coli MITC95 [4, 9]: 1.563 µM
Klebsiella pneumoniae MITC95 [5, 10]: 37.5 µM
Serratia marcescens MITC95 [6, 11]: 18.75 µM

Nc1[nH]nc2cc(-c3cccc(S(N)(=O)=O)c3-c3nnn[nH]3)ccc12 [Example 131, 3-(3-amino-2H-indazol-6-yl)-2-(1H-tetrazol-5-yl)benzenesulfonamide]
IC50 [1, 19]: 0.7 nM
IC50 [2, 19]: 187 nM
IC50 [3, 20]: 16.9 nM
Escherichia coli expressing NDM-1 (CLB 30016) MITC95 [4]: 0.7813 µM
Klebsiella pneumoniae expressing VIM-1 (IHMA 599644) MITC95 [5]: 3.125 µM
Serratia marcescens expressing IMP-1 (CL5741) MITC95 [6]: 3.125 µM

NS(=O)(=O)c1c(CC2CCN(CCO)CC2)ccc(-c2ccc(C3CNC3)cc2)c1-c1nn[nH]n1 [Example 607, 3-[4-(azetidin-3-yl)phenyl]-6-[[1-(2-hydroxyethyl)-4-piperidyl]methyl]-2-(2H-tetrazol-5-yl)benzenesulfonamide]
IC50 [1, 12]: 11.3 nM
IC50 [2, 13]: 42.2 nM
IC50 [3, 14]: 2.07 nM
Escherichia coli MITC95 [4, 15]: 1.563 µM
Klebsiella pneumoniae MITC95 [5, 16]: 1.563 µM
Serratia marcescens MITC95 [6, 17]: 3.125 µM

NS(=O)(=O)c1c(C(F)(F)F)ccc(-c2ccc3c(c2)CNC3)c1-c1nnn[nH]1 [Example 715, 3-(2,3-dihydro-1H-isoindol-5-yl)-2-(1H-tetrazol-5-yl)-6-(trifluoromethyl)benzenesulfon-amide]
IC50 [1, 12]: 25.3 nM
IC50 [2, 13]: 27.4 nM
IC50 [3, 14]: 0.729 nM
Escherichia coli MITC95 [4, 15]: 6.25 µM
Klebsiella pneumoniae MITC95 [5, 16]: 3.125 µM
Serratia marcescens MITC95 [6, 17]: 12.5 µM

NS(=O)(=O)c1c(C(F)(F)F)ccc([C@H]2CC[C@@H](C3CCNCC3)CC2)c1-c1nnn[nH]1 [Example 831, 3-((1s,4s)-4-(piperidin-4-yl)cyclohexyl)-2-(1H-tetrazol-5-yl)-6-(trifluoromethyl)benzenesulfonamide]
IC50 [1, 19]: 0.817 nM
IC50 [2, 19]: 0.892 nM
IC50 [3, 20]: 2.84 nM
Escherichia coli MITC95 [4, 21]: 2.344 µM
Klebsiella pneumoniae MITC95 [5, 22]: 50 µM
Serratia marcescens MITC95 [6, 23]: 3.125 µM

NS(=O)(=O)c1cccc(C2CCC(N3CCNCC3)CC2)c1-c1nn[nH]n1 (stereo not drawn) [Example 170, 3-(4-(piperazin-1-yl)cyclohexyl)-2-(2H-tetrazol-5-yl)benzenesulfonamide]
IC50 [1, 19]: 21.9 nM
IC50 [2, 19]: 577 nM
IC50 [3, 20]: 3470 nM
Escherichia coli expressing NDM-1 (CLB 30016) MITC95 [4]: 1.563 µM
Klebsiella pneumoniae expressing VIM-1 (IHMA 599644) MITC95 [5]: 200 µM
Serratia marcescens expressing IMP-1 (CL5741) MITC95 [6]: 9.375 µM

Cc1cnc(-c2cccc(S(N)(=O)=O)c2-c2nn[nH]n2)cn1 [Example 248, 3-(5-Methylpyrazin-2-yl)-2-(2H-tetrazol-5-yl)benzenesulfonamide]
IC50 [1, 7]: 4.49 nM
IC50 [2, 8]: 134 nM
IC50 [3, 18]: 132 nM
Escherichia coli MITC95 [4, 9]: 0.1875 µM
Klebsiella pneumoniae MITC95 [5, 10]: 12.5 µM
Serratia marcescens MITC95 [6, 11]: 4.688 µM

NS(=O)(=O)c1c(C(F)(F)F)ccc(N2CCN(CCO)CC2)c1-c1nnn[nH]1 [Example 759, 3-[4-(2-hydroxyethyl)piperazin-1-yl]-2-(1H-tetrazol-5-yl)-6-(trifluoromethyl) benzenesulfonamide]
IC50 [1, 19]: 22.5 nM
IC50 [2, 19]: 40.9 nM
IC50 [3, 20]: 45.6 nM
Escherichia coli MITC95 [4, 21]: 3.125 µM
Klebsiella pneumoniae MITC95 [5, 22]: 12.5 µM
Serratia marcescens MITC95 [6, 23]: 3.125 µM

NS(=O)(=O)c1c(C(F)(F)F)ccc(-c2ccc(N3CCC(O)CC3)cc2)c1-c1nnn[nH]1 [Example 740, 4′-(4-hydroxypiperidin-1-yl)-2-(1H-tetrazol-5-yl)-4-(trifluoromethyl)biphenyl-3-sulfonamide]
IC50 [1, 12]: 0.229 nM
IC50 [2, 13]: 0.456 nM
IC50 [3, 14]: 1.15 nM
Escherichia coli MITC95 [4, 15]: 6.25 µM
Klebsiella pneumoniae MITC95 [5, 16]: 50 µM
Serratia marcescens MITC95 [6, 17]: 6.25 µM

NC1CCC(c2ccc(CC3CCNCC3)c(S(N)(=O)=O)c2-c2nn[nH]n2)CC1 (stereo not drawn) [Example 839, 3-(4-aminocyclohexyl)-6-(piperidin-4-ylmethyl)-2-(2H-tetrazol-5-yl)benzenesulfonamide]
IC50 [1, 19]: 56.9 nM
IC50 [2, 19]: 359 nM
IC50 [3, 20]: 19.3 nM
Escherichia coli MITC95 [4, 21]: 3.125 µM
Klebsiella pneumoniae MITC95 [5, 22]: 6.25 µM
Serratia marcescens MITC95 [6, 23]: 6.25 µM

NCCNC1CCN(c2ccc(C(F)(F)F)c(S(N)(=O)=O)c2-c2nnn[nH]2)CC1 [Example 829, 3-[4-(2-aminoethylamino)-1-piperidyl]-2-(1H-tetrazol-5-yl)-6-(trifluoromethyl)benzenesulfonamide]
IC50 [1, 19]: 59.8 nM
IC50 [2, 19]: 93.3 nM
IC50 [3, 20]: 1.08 nM
Escherichia coli MITC95 [4, 21]: 0.7813 µM
Klebsiella pneumoniae MITC95 [5, 22]: 0.7813 µM
Serratia marcescens MITC95 [6, 23]: 0.9766 µM

NS(=O)(=O)c1cccc(-c2cnc3n2CCCC3)c1-c1nnn[nH]1 [Example 419, 3-(5,6,7,8-tetrahydroimidazo[1,2-a]pyridin-3-yl)-2-(1H-tetrazol-5-yl)benzenesulfonamide]
IC50 [1, 7]: 51.9 nM
IC50 [2, 8]: 1040 nM
IC50 [3, 18]: 469 nM
Escherichia coli MITC95 [4, 9]: 0.25 µM
Klebsiella pneumoniae MITC95 [5, 10]: 25 µM
Serratia marcescens MITC95 [6, 11]: 25 µM

NC(=O)c1ccc2cc(-c3cccc(S(N)(=O)=O)c3-c3nn[nH]n3)ccc2n1 [Example 288, 6-(3-sulfamoyl-2-(2H-tetrazol-5-yl)phenyl)quinoline-2-carboxamide]
IC50 [1, 7]: 1.31 nM
IC50 [2, 8]: 88.9 nM
IC50 [3, 18]: 9.78 nM
Escherichia coli MITC95 [4, 9]: 1.563 µM
Klebsiella pneumoniae MITC95 [5, 10]: 75 µM
Serratia marcescens MITC95 [6, 11]: 9.375 µM

NS(=O)(=O)c1c(C(F)(F)F)ccc(-c2ccc(C3CCCN3)cc2)c1-c1nnn[nH]1 (stereo not drawn) [Example 716, 4′-pyrrolidin-2-yl-2-(1H-tetrazol-5-yl)-4-(trifluoromethyl)biphenyl-3-sulfonamide]
IC50 [1, 12]: 8.07 nM
IC50 [2, 13]: 5.43 nM
IC50 ([3]; VIM-1 IC50, VIM-1 enzyme, CCF2-FA substrate): 2.79 nM
Escherichia coli MITC95 [4, 15]: 6.25 µM
Klebsiella pneumoniae MITC95 [5, 16]: 25 µM
Serratia marcescens MITC95 [6, 17]: 3.125 µM
